Measurements as given in patent publication US20040180959A1, “Gabapentin analogues for fibromy algia and concomitant disorders” (priority 2002, published 2004).

Experiments:
Assay type in all cases: in vivo
[1] = system: mice; assay: Inverted Screen Test to assess coordination; settings: doses up to 100 mg/kg PO, immediately following the TST, 1-minute trial
Method: Immediately following the TST, mice were also tested in the Inverted Screen Test to assess coordination. Animals were given a 1-minute trial in which they had to climb to the top of the inverted screen or to simply hang on and not fall off.

[2] = system: CD-1 mice; assay: Tail Suspension Test (TST) in mice; settings: 2 hours after treatment
Method: The anxiolytic and antidepressant activity of (3S, 4S)-(1-Aminomethyl-3,4-dimethyl-cyclopentyl)-acetic acid (“Compound A”) was assessed using the Tail Suspension Test (TST) in mice, and in the Water-lick (Vogel) Conflict Test (WLC) in rats. The Vogel test is a recognized test procedure for assessing the potential anxiolytic utility. The TST procedure is a behavior despair paradigm used to assess potential antidepressant activity.
The method consisted of suspending mice by a piece of cellophane tape attached to the distal end of the tail for 6 minutes. Animals (CD-1 mice, weighing 22 to 27 g, from Charles River Labs) were tested. The test apparatus was the TST-2™ (ITEM-Labo, Le Kremmlin-Bicetre Cedex, France). Data were analyzed with analysis of variance (ANOVA) and Tukey's Multiple Range Test or Student's t-test.
(§1) Compound A was dissolved in water and tested orally as a solution from 0.3 to 100 mg/kg in rats and 3 to 300 mg/kg in mice. Dosages are expressed as the active moiety and were administered in a volume of 1 mL/kg for rats and 10 mL/kg for mice.
The profile of typical […] activity in the TST consists of […]. Compound A and pregabalin were tested concurrently (PO) 2 hours after treatment. Compound A was administered at doses ranging from 3 to 100 mg/kg and pregabalin was tested from 3-300 mg/kg and served as positive control (Table 1). Compound A dose dependently increases immobility with the MED observed at the 3 mg/kg dosage and maximal effects were seen following the 30 mg/kg dose.

[3] = system: Wistar rats; assay: Water-lick (Vogel) Conflict Test in rats; settings: for Percent of Animals Tested With >20 Shock Episodes / Mean Shock Episodes (1 mA): pretreatment 120 minutes; for Mean Shock Episodes (1 mA): Mean ± SEM
Method: In each experiment, naive adult male Wistar rats between 170 to 200 g were randomly divided into groups (N=10-30/group) and deprived of water for 48 hours prior to testing. Food was available on Day 1 and removed 24 hours prior to test Day 2.
Apparatus: The modular operant test cage (Coulbourn Instruments) measures 10.25×12×12 in. The test chambers feature 3 modular bays on each side of the cage for a total of 6 bays. A module optical lickometer is mounted on one side of the chamber 5 cm above the grid floor. The lickometer is used to measure licking-drinking from a water bottle mounted outside the test chamber. A photo beam is piped via glass rods to the tip of the drink tube across a gap at the end of the tube. The animals tongue breaks the beam on each lick. The front and back of the test chamber is made of clear Plexiglas. The front door is covered to reduce distractions from inside the test room. The back of the test chamber is facing a wall, away from the flow of traffic within the testing room and remains uncovered to provide the opportunity for observations during testing. Shocks are delivered using a (Coulbourn) programmable universal shocker calibrated to deliver a 1 mA shock for 1 second through the drink tube.
Procedure: On Day 1, after a 24-hour water deprivation, experimental subjects were placed into the test chambers and allowed to drink unpunished. Drinking was limited to 500 responses or approximately 5 mL of water during a 10 minute session. Immediately following the unpunished drinking session, rats were returned to their home cages, deprived of water for an additional 24 hours and was food deprived. […] After the pretreatment period rats were placed into a test chamber and allowed to drink for 10 minutes. After every 10 licks, rats received a 1-second shock (1 mA) through the drink tube. Thus, a conflict or anxiety-producing situation exists. Rats are motivated to drink; however, they are inhibited by the shock. Anxiety is reflected by the low amounts of drinking. Standard anxiolytic drugs produce effects that allow rats to overcome this behavioral inhibition and drink despite the shock.
All data were analyzed using a Kruskal-Wallis one Way Analysis of Variance on Ranks and Mann-Whitney Rank Sum Tests.
Quantitative Analysis: A quantitative analysis represents the percentage of subjects within a treatment group that receives >20 shock episodes during a test session. This number provides a quantitative comparison regarding the distribution of the responses.
as §1

[4] = doses 3× and 10× the Vogel MED (10 and 30 mg/kg)
[5] = oral, 2 hour pretreatment, rats

With `C[C@H]1CC(CN)(CC(=O)O)C[C@@H]1C` [Compound A, (3S, 4S)-(1-Aminomethyl-3,4-dimethyl-cyclopentyl)-acetic acid] the Screen fall-off [1] was “did not cause animals to fall off”, the “Immobility, % Percent of control” value ([2]; 3 mg/kg PO) was 126.8 ± 7.0 % and the “Power of Movement, % Percent of control” value ([2]; 3 mg/kg PO) was 70.7 ± 10.3%. The “Immobility, % Percent of control” value ([2]; 10 mg/kg PO) was 143.7 ± 11.0 %, the “Power of Movement, % Percent of control” value ([2]; 10 mg/kg PO) was 60.8 ± 11.4% and the “Immobility, % Percent of control” value ([2]; 30 mg/kg PO) was 185.9 ± 7.0 %. The “Power of Movement, % Percent of control” value ([2]; 30 mg/kg PO) was 46.4 ± 12.3 %, the “Immobility, % Percent of control” value ([2]; 100 mg/kg PO) was 182.4 ± 5.9 % and the “Power of Movement, % Percent of control” value ([2]; 100 mg/kg PO) was 50.5 ± 18.3 %. The “Dose of maximal effects on immobility” value ([2]; PO) was 30 mg/kg, the “MED for increasing immobility” value ([2]; PO) was 3 mg/kg and the “Power of movement parameter (effect in words)” value ([2]; PO) was “decreased at the 30 and 100 mg/kg dosages”. For the same compound, the “Percent of Animals Tested With >20 Shock Episodes” value ([3]; 0.3 mg/kg PO) was 20%, the “Mean Shock Episodes (1 mA)” value ([3]; 0.3 mg/kg PO) was 16.5 ± 8.7 and the “Percent of Animals Tested With >20 Shock Episodes” value ([3]; 1 mg/kg PO) was 10%. For the same compound, the “Mean Shock Episodes (1 mA)” value ([3]; 1 mg/kg PO) was 11.7 ± 4.2, the “Percent of Animals Tested With >20 Shock Episodes” value ([3]; 3 mg/kg PO) was 17% and the “Mean Shock Episodes (1 mA)” value ([3]; 3 mg/kg PO) was 16.7 ± 4.3. The “Shock episodes (time-course)” value ([3]; 3 mg/kg, 1 hr post treatment) was 38.8 ± 12.2, the “Shock episodes (time-course)” value ([3]; 3 mg/kg, 2 hr post treatment) was 55.7 ± 12.7 and the “Shock episodes (time-course)” value ([3]; 3 mg/kg, 4 hr post treatment) was 38.4 ± 12.2. For the same compound, the “Shock episodes (time-course)” value ([3]; 3 mg/kg, 6 hr post treatment) was 44.7 ± 13.3, the “Shock episodes (time-course)” value ([3]; 3 mg/kg, 8 hr post treatment) was 7.7 ± 1.2 and the “Percent of Animals Tested With >20 Shock Episodes” value ([3]; 10 mg/kg PO) was 43%. The “Mean Shock Episodes (1 mA)” value ([3]; 10 mg/kg PO) was 33.8 ± 6.2, the “Shock episodes (time-course)” value ([3]; 10 mg/kg, 30 min. post treatment) was 14.1 ± 3.1 and the “Shock episodes (time-course)” value ([3]; 10 mg/kg, 1 hr post treatment) was 28.2 ± 7.6. The “Shock episodes (time-course)” value ([3]; 10 mg/kg, 2 hr post treatment) was 29.6 ± 8.0, the “Shock episodes (time-course)” value ([3]; 10 mg/kg, 4 hr post treatment) was 47.7 ± 11.7 and the “Shock episodes (time-course)” value ([3]; 10 mg/kg, 6 hr post treatment) was 38.4 ± 13.2. The “Percent of Animals Tested With >20 Shock Episodes” value ([3]; 30 mg/kg PO) was 67%, the “Mean Shock Episodes (1 mA)” value ([3]; 30 mg/kg PO) was 46.3 ± 7.6 and the “Shock episodes (time-course)” value ([3]; 30 mg/kg, 30 min. post treatment) was 35.8 ± 12.6. The “Shock episodes (time-course)” value ([3]; 30 mg/kg, 1 hr post treatment) was 93.3 ± 12.1, the “Shock episodes (time-course)” value ([3]; 30 mg/kg, 2 hr post treatment) was 88.4 ± 7.4 and the “Shock episodes (time-course)” value ([3]; 30 mg/kg, 4 hr post treatment) was 73.5 ± 12.2. For the same compound, the “Shock episodes (time-course)” value ([3]; 30 mg/kg, 6 hr post treatment) was 97.4 ± 11.1, the “Percent of Animals Tested With >20 Shock Episodes” value ([3]; 100 mg/kg PO) was 90% and the “Mean Shock Episodes (1 mA)” value ([3]; 100 mg/kg PO) was 52.8 ± 10.9. The “Time of peak activity after treatment” value ([3]; 10 and 30 mg/kg respectively) was 4 to 6 h, the Activity maintained through ([3]; MED dose 3 mg/kg) was 6 h and the “Onset of activity after treatment” value ([3]; MED dose 3 mg/kg) was 2 h. For the same compound, the “Time of peak activity” value ([3]; MED dose 3 mg/kg) was 2 h, the Activity maintained through [3, 4] was 6 h and the “Onset of activity after treatment” value [3, 4] was 1 h. For the same compound, the “Dose of maximal anti-conflict effects” value [3, 5] was 100 mg/kg and the “MED for anti-conflict activity” value [3, 5] was 3 mg/kg.
